Experimental data taken from patent US11578055B2, “Triazacyclododecansulfonamide (“TCD”)-based protein secretion inhibitors” (KEZAR LIFE SCIENCES, priority 2018, dated 2023).
Where two headings read alike, the source gives them in different places.

Columns and labels:
[1] = tested on: multiple myeloma cell line U266B1; test: U266 Cell Viability Assay; assay type: cell-based, human; details: 48 hr
In short: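 U266B1 myeloma cells in RPMI 1640 with 10% FBS were treated with compound dilutions for 48 h at 37° C, 5% CO2. Viability was read as CellTiter-Glo luminescence. Data for structures drawn without stereochemistry refer to stereoisomer mixtures.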

[2] = In Vitro Microsome Stability Assay (mouse); assay type: in vitro ADME
In short: (§1)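 Test article, added from a 0.25 mM DMSO stock, was incubated with liver microsomes (20 mg/mL stock) in 0.1 M potassium phosphate at 37° C, with the reaction started by NADPH. Samples were quenched with acetonitrile containing internal standard at 0 and 30 min and analysed by LC-MS/MS. Values are % remaining at 30 min versus 0 min, using IS-normalised AUC ratios.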

[3] = In Vitro Microsome Stability Assay (monkey); assay type: in vitro ADME
In short: as §1

[4] = tested on: multiple myeloma cell line NCl-H929; test: H929 Cell Viability Assay; assay type: cell-based, human
In short: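 NCI-H929 myeloma cells in RPMI 1640 with 10% FBS were treated with compound dilutions for 48 h at 37 °C, and viability was then read by CellTiter-Glo luminescence. Compounds drawn without stereochemistry were tested as stereoisomer mixtures.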

[5] = tested on: full length TNFα (amino acids 1-233) fused to Gaussia Luciferase; test: Dox Induced TNFα-FL-Gluc Assay; assay type: cell-based; details: 24 hr, read-out: 24 hr Dox Inducible TNFaFLGluc 293FRT/TO: Mean IC50
In short: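 Stable Flp-In 293 T-REx line expressing doxycycline-inducible full-length TNFα fused to Gaussia luciferase; cells plated the day before, then treated with compound dilutions in doxycycline-containing medium at 37° C, 5% CO2. Unspecified stereocentres mean stereoisomer mixtures were tested.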

[6] = tested on: full length IL-2 (amino acids 1-153) fused to Gaussia Luciferase; test: Dox Induced IL2-FL-Gluc Assay; assay type: cell-based; details: 24 hr, read-out: 24 hr Dox Inducible IL2FLGluc 293FRT/TO: Mean IC50
Description: FIp-In 293 T-REx™ cells were transfected with pcDNA™5/FRT/TO plasmid inserted with cDNA encoding Gaussia Luciferase fused to the 3′ end of cDNA encoding full length IL-2 (amino acids 1-153). Transfected cells were selected for resistance to the selectable markers Hygromycin and Blasticidin to create a stable cell line that contained the IL-2-FL/Gaussia Luciferase cDNA insert whose expression was regulated under the T-REx™ system. The day before assay, cells were trypsinized and plated in 384-well tissue culture plates. The next day, compound dilutions in DMSO/media containing doxycycline were added to the wells and incubated at 37° C., 5% CO2.
For chemical structures that include one or more stereoisomers, but are illustrated without indicating stereochemistry, the assay data refers to a mixture of stereoisomers.

[7] = In Vitro Microsome Stability Assay (rat); assay type: in vitro ADME
In short: as §1

[8] = In Vitro Microsome Stability Assay (human); assay type: in vitro ADME
In short: as §1

[9] = tested on: PD1 signal sequence plus 10 amino acids fused to Gaussia Luciferase (PD1-ss+10aa/Gaussia Luciferase); test: Dox Induced PD1-ss-Gluc Assay; assay type: cell-based; details: 24 hr, read-out: 24 hr Dox Inducible PD1ssGluc 293FRT/TO: Mean IC50
In short: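 Stable Flp-In 293 T-REx line expressing the fusion under tetracycline-inducible control, plated the day before assay. Compound dilutions added with doxycycline and incubated at 37 °C, 5% CO2; unspecified stereocentres mean data refer to stereoisomer mixtures.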

[10] = mouse liver microsomes, 30 min w/ NADPH
[11] = monkey liver microsomes, 30 min w/ NADPH
[12] = rat liver microsomes, 30 min w/ NADPH
[13] = human liver microsomes, 30 min w/ NADPH
[14] = Homo sapiens, U-266, U266, read-out: 48 hr U266 Viability Celltiter-Glo: Mean EC50
[15] = Homo sapiens, NCI-H929, 48 h, H929, read-out: 48 hr H929 Viability Celltiter-Glo: Mean EC50
[16] = Homo sapiens, U-266, U266, Celltiter-Glo
[17] = Homo sapiens, NCI-H929, 48 h, H929, Celltiter-Glo

Compound: Cc1cc(F)ccc1N1CCN(S(=O)(=O)N2CCCN(CC3CCCCC3)CCCN(S(=O)(=O)c3ccc(N(C)C)cc3)C[C@H](C)C2)C(C)C1 (stereo in doubt) [A163, 4-{[(3S)-9-(cyclohexylmethyl)-5-{[(2 R)-4-(4-fluoro-2-methylphenyl)-2-methylpiperazin-1-yl]sulfonyl}-3-methyl-1,5,9-triazacyclododecan-1-yl]sulfonyl}-N,N-dimethylaniline]
- EC50 ([1]; U266, Celltiter-Glo): > 25 µM
- Liver Microsome Stability-% Left after 30 min w/ NADPH (%) Mouse [2, 10]: 72.8%
- Liver Microsome Stability-% Left after 30 min w/ NADPH (%) Monkey [3, 11]: 57.5%
- EC50 ([4]; 48 hr, H929, Celltiter-Glo): 13.6 µM
- IC50 ([5]; Dox inducible, 293FRT/TO cells): 1.93 µM
- IC50 ([6]; Dox inducible, 293FRT/TO cells): 0.0812 µM
- Liver Microsome Stability-% Left after 30 min w/ NADPH (%) Rat [7, 12]: 54.9%
- Liver Microsome Stability-% Left after 30 min w/ NADPH (%) Human [8, 13]: 64.2%
- IC50 ([9]; Dox inducible, 293FRT/TO cells): 0.0556 µM

Compound: CO/N=C1/CN(S(=O)(=O)c2ccc(N(C)C)cc2)CCCN(CC2CCCCC2)CCCN(S(=O)(=O)N2CCC(c3ccccc3)CC2)C1 [A88, (3Z)-9-(cyclohexylmethyl)-1-[4-(dimethylamino)benzenesulfonyl]-N-methoxy-5-[(4-phenylpiperidin-1-yl)sulfonyl]-1,5,9-triazacyclododecan-3-imine]
- EC50 [1, 14]: > 25 µM
- Liver Microsome Stability-% Left after 30 min w/ NADPH (%) Mouse ([2]; mouse, 30 min, NADPH): 15.9%
- Liver Microsome Stability-% Left after 30 min w/ NADPH (%) Monkey ([3]; monkey, 30 min, NADPH): 1.33%
- EC50 [4, 15]: > 25 µM
- IC50 ([5]; 293FRT/TO): > 25 µM
- IC50 ([6]; 293FRT/TO): > 25 µM
- Liver Microsome Stability-% Left after 30 min w/ NADPH (%) Rat ([7]; rat, 30 min, NADPH): 15.2%
- Liver Microsome Stability-% Left after 30 min w/ NADPH (%) Human ([8]; human, 30 min, NADPH): 11.7%
- IC50 ([9]; 293FRT/TO): 4.33 µM

Compound: C=C1CN(S(=O)(=O)c2ccc(N(C)C)cc2)CCCN(CC2CCCCC2)CCCN(S(=O)(=O)N2Cc3ccc(Cl)cc3C2)C1 [A89, 4-({5-[(5-chloro-2,3-dihydro-1H-isoindo1-2-yl)sulfonyl]-9-(cyclohexylmethyl)-3-methylidene-1,5,9-triazacyclododecan-1-yl}sulfonyl)-N,N-dimethylaniline]
- EC50 [1, 14]: > 25 µM
- Liver Microsome Stability-% Left after 30 min w/ NADPH (%) Mouse ([2]; mouse, 30 min, NADPH): 17.1%
- Liver Microsome Stability-% Left after 30 min w/ NADPH (%) Monkey ([3]; monkey, 30 min, NADPH): 13.5%
- EC50 [4, 15]: 1.75 µM
- IC50 ([5]; 293FRT/TO): 1.21 µM
- IC50 ([6]; 293FRT/TO): 0.187 µM
- Liver Microsome Stability-% Left after 30 min w/ NADPH (%) Rat ([7]; rat, 30 min, NADPH): 22.2%
- Liver Microsome Stability-% Left after 30 min w/ NADPH (%) Human ([8]; human, 30 min, NADPH): 18.5%
- IC50 ([9]; 293FRT/TO): 0.082 µM

Compound: C[C@H]1CN(S(=O)(=O)c2ccc(N(C)C)cc2)CCCN(CC2CCCCC2)CCCN(S(=O)(=O)N2CC[C@@H](c3ccccc3)C2)C1 [A90, 4-{[(3S)-9-(cyclohexylmethyl)-3-methyl-5-{[(3S)-3-phenylpyrrolidin-1-yl]sulfonyl}-1,5,9-triazacyclododecan-1-yl]sulfonyl}-N,N-dimethylaniline]
- EC50 [1, 14]: > 25 µM
- Liver Microsome Stability-% Left after 30 min w/ NADPH (%) Mouse ([2]; mouse, 30 min, NADPH): 28.2%
- Liver Microsome Stability-% Left after 30 min w/ NADPH (%) Monkey ([3]; monkey, 30 min, NADPH): 14.1%
- EC50 [4, 15]: 3.79 µM
- IC50 ([5]; 293FRT/TO): 2.41 µM
- IC50 ([6]; 293FRT/TO): 0.493 µM
- Liver Microsome Stability-% Left after 30 min w/ NADPH (%) Rat ([7]; rat, 30 min, NADPH): 20.2%
- Liver Microsome Stability-% Left after 30 min w/ NADPH (%) Human ([8]; human, 30 min, NADPH): 20.1%
- IC50 ([9]; 293FRT/TO): 0.207 µM

Compound: C[C@H]1CN(S(=O)(=O)c2ccc(N(C)C)cc2)CCCN(CC2CCCCC2)CCCN(S(=O)(=O)N2CC[C@H](c3ccccc3)C2)C1 [A91, 4-{[(3S)-9-(cyclohexylmethyl)-3-methyl-5-{[(3 R)-3-phenylpyrrolidin-1-yl]sulfonyl}-1,5,9-triazacyclododecan-1-yl]sulfonyl}-N,N-dimethylaniline]
- EC50 [1, 14]: 14.7 µM
- Liver Microsome Stability-% Left after 30 min w/ NADPH (%) Mouse ([2]; mouse, 30 min, NADPH): 25.4%
- Liver Microsome Stability-% Left after 30 min w/ NADPH (%) Monkey ([3]; monkey, 30 min, NADPH): 21.8%
- EC50 [4, 15]: 3.01 µM
- IC50 ([5]; 293FRT/TO): 2.46 µM
- IC50 ([6]; 293FRT/TO): 0.377 µM
- Liver Microsome Stability-% Left after 30 min w/ NADPH (%) Rat ([7]; rat, 30 min, NADPH): 21.6%
- Liver Microsome Stability-% Left after 30 min w/ NADPH (%) Human ([8]; human, 30 min, NADPH): 23.7%
- IC50 ([9]; 293FRT/TO): 0.193 µM

Compound: C[C@H]1CN(S(=O)(=O)c2ccc(N(C)C)cc2)CCCN(CC2CCCCC2)CCCN(S(=O)(=O)N2CCC(Oc3ccccc3)CC2)C1 [A92, 4-{[(3S)-9-(cyclohexylmethyl)-3-methyl-5-[(4-phenoxypiperidin-1-yl)sulfonyl]-1,5,9-triazacyclododecan-1-yl]sulfonyl}-N,N-dimethylaniline]
- EC50 [1, 14]: > 25 µM
- Liver Microsome Stability-% Left after 30 min w/ NADPH (%) Mouse ([2]; mouse, 30 min, NADPH): 40.8%
- Liver Microsome Stability-% Left after 30 min w/ NADPH (%) Monkey ([3]; monkey, 30 min, NADPH): 40.4%
- EC50 [4, 15]: > 25 µM
- IC50 ([5]; 293FRT/TO): > 25 µM
- IC50 ([6]; 293FRT/TO): 0.519 µM
- Liver Microsome Stability-% Left after 30 min w/ NADPH (%) Rat ([7]; rat, 30 min, NADPH): 51.8%
- Liver Microsome Stability-% Left after 30 min w/ NADPH (%) Human ([8]; human, 30 min, NADPH): 44.3%
- IC50 ([9]; 293FRT/TO): 0.304 µM

Compound: C[C@H]1CN(S(=O)(=O)c2ccc(N(C)C)cc2)CCCN(CC2CCCCC2)CCCN(S(=O)(=O)N2CCNCC2)C1 [A155, 4-{[(3S)-9-(cyclohexylmethyl)-3-methyl-5-(piperazine-1-sulfonyl)-1,5,9-triazacyclododecan-1-yl]sulfonyl}-N, N-dimethylaniline]
- EC50 [1, 16]: > 25 µM
- Liver Microsome Stability-% Left after 30 min w/ NADPH (%) Mouse [2, 10]: 16.8%
- Liver Microsome Stability-% Left after 30 min w/ NADPH (%) Monkey [3, 11]: 4.86%
- EC50 [4, 17]: 7.8 µM
- IC50 ([6]; Dox inducible, 293FRT/TO cells): 3.48 µM
- Liver Microsome Stability-% Left after 30 min w/ NADPH (%) Rat [7, 12]: 38.8%
- Liver Microsome Stability-% Left after 30 min w/ NADPH (%) Human [8, 13]: 17.8%
- IC50 ([9]; Dox inducible, 293FRT/TO cells): 1.35 µM

Compound: C[C@@H](CNS(=O)(=O)c1ccc(N(C)C)cc1)CNS(=O)(=O)N1CCc2cc(Cl)ccc2C1 [B10, (S)-6-chloro-N-(3-((4-(dimethylamino)phenyl)sulfonamido)-2-methylpropyl)-3,4-dihydroisoquinoline-2(1H)-sulfonamide]
- EC50 [1, 16]: > 25 µM
- EC50 [4, 17]: > 25 µM
- IC50 ([5]; Dox inducible, 293FRT/TO cells): > 25 µM
- IC50 ([6]; Dox inducible, 293FRT/TO cells): 6.92 µM
- IC50 ([9]; Dox inducible, 293FRT/TO cells): 16.5 µM

Compound: C[C@H](CNS(=O)(=O)c1ccc(N(C)C)cc1)CNS(=O)(=O)N1CCc2cc(Cl)ccc2C1 [B11, N-[(2 R)-3-{[(6-chloro-1,2,3,4-tetrahydroisoquinolin-2-yl)sulfonyl]amino}-2-methylpropyl]-4-(dimethylamino)benzene-1-sulfonamide]
- EC50 [1, 16]: > 25 µM
- EC50 [4, 17]: > 25 µM
- IC50 ([5]; Dox inducible, 293FRT/TO cells): > 25 µM
- IC50 ([6]; Dox inducible, 293FRT/TO cells): > 25 µM
- IC50 ([9]; Dox inducible, 293FRT/TO cells): > 25 µM

Compound: C[C@@H](CN(C)S(=O)(=O)c1ccc(N(C)C)cc1)CN(C)S(=O)(=O)N1CCc2cc(Cl)ccc2C1 [B12]
- EC50 [1, 16]: > 25 µM
- EC50 [4, 17]: > 25 µM
- IC50 ([5]; Dox inducible, 293FRT/TO cells): > 25 µM
- IC50 ([6]; Dox inducible, 293FRT/TO cells): > 25 µM
- IC50 ([9]; Dox inducible, 293FRT/TO cells): 5.66 µM
